What was measured:
[1] = system: Akt phosphorylation at the PDK2 site [S473] versus the PDK1 site [T308]; experiment: Western blot of Akt phosphorylation at PDK2 (S473) vs PDK1 (T308) sites in PC-3 cells; type: cell-based, human; conditions: 24 h, 2.5 μM, 5% FBS
Protocol: (§1) FIG. 2 provides (A) Western blot analysis of the effects of compounds 1-9 on Akt phosphorylation at the PDK1 (T308) and PDK2 (S473) sites in PC-3 human prostate cancer cells after 24 h treatment at 2.5 μM in the presence of 5% fetal bovine serum (FBS), and (B) Dose-dependent effects of compounds 1-9 on the viability of PC-3 cells treated as described above in A. Cell viability was assessed by MTT assay. Points, mean; bars, ±SD.

[2] = system: PC-3 human prostate cancer cells; experiment: MTT cell viability assay in PC-3 cells; type: cell-based; conditions: 24 h, 5% FBS; for IC50: Homo sapiens, read-out: IC50, antiproliferative activity
Protocol: as §1
(§2) FIG. 5 provides the results from the screening of compounds 10-13. (A) Dose-dependent effects of compounds 10-13 and 2 on the viability of PC-3 cells after 24 h treatment […] in the presence of 5% FBS. Cell viability was assessed by MTT assay. Points, mean; bars, ±SD. (B) Western blot analysis of the effects of compounds 2 and 13 on the phosphorylation status of downstream targets of ILK in PC-3 cells.
(§3) In another series of tests, Compounds 10-13 were screened for antiproliferative activity, in parallel with compound 2, by MTT assay in PC-3 human prostate cancer cells. […] The effects of compound 13, vs. compound 2, on the phosphorylation status of downstream targets of ILK in PC-3 cells were evaluated by western blotting.

[3] = system: prostate (PC-3, LNCaP) and breast cancer (MDA-MB-468, MDA-MB-231, CAL51, MCF-7, SKBR3) cell lines vs nonmalignant prostate (PrEC) and mammary epithelial cells …; experiment: MTT cell viability in panel of prostate and breast cancer cell lines vs nonmalignant epithelial cells; type: cell-based, human; conditions: 12, 24 or 48 h
Protocol: Time- and/or dose-dependent effects of compound 2 on cell viability in (A) prostate cancer (PC-3, LNCaP) and nonmalignant prostate epithelial cells (PrEC), and (B) breast cancer (MDA-MB-468, MDA-MB-231, CAL51, MCF-7, SKBR3) and nonmalignant mammary epithelial cells (MEC) were determined. Cells were treated for 12, 24 or 48 h at the indicated concentrations and cell viability determined by MTT assays. Points, mean; bars, ±SD.
As structurally related compounds 2 and 3 differ only in that the N-alkyl moiety, i.e., methyl versus ethyl, compound 2 was selected for more thorough evaluation. Dose- and time-dependent effects of compound 2 on cell viability were determined in a panel of two prostate (PC-3, LNCaP) and five breast cancer (MDA-MB-468, MDA-MB-231, CAL51, MCF-7, SKBR3) cell lines (FIGS. 3A and B). Moreover, cancer cell lines were also evaluated in parallel with nonmalignant prostate and mammary epithelial cells (FIG. 3A, lower panel; 3B lower right panel).

[4] = system: downstream targets of ILK (Akt-S473; GSK3β-S9); experiment: Western blot of downstream targets of ILK, dose-dependent (FIG. 4); type: cell-based, human; conditions: PC-3 and MDA-MB-468 cells, 24 h, 5% FBS
Protocol: FIG. 4 provides evidence that Compound 2 suppresses the ILK signaling pathway. Western blot analysis of the dose-dependent effect of Compound 2 on downstream targets of ILK (Akt-S473; GSK3β-S9) in PC-3 and […] cells. Cells were treated for 24 h at the indicated concentrations in the presence of 5% FBS.
Based on western blot data showing the selective reduction in phospho-Akt-S473 levels relative to those of phospho-Akt-T308 (FIG. 2A), compound 2 was identified as an inhibitor of PDK2 activity. To evaluate compound 2 for the ability to inhibit ILK signaling, its effect on downstream targets of ILK was assessed in PC-3 and MDA-MB-468 cells by Western blotting (FIG. 4).

PC-3 tumor xenografts = experiment: PC-3 prostate tumor xenograft model, oral dosing; type: in vivo; conditions: 35 days
Protocol: PC-3 tumors were established in male athymic nude mice by subcutaneous injection of 5×10^5 PC-3 cells in a total volume of 0.1 ml serum-free medium containing 50% Matrigel. Mice with established tumors were randomized to three groups receiving the indicated treatments once daily by gavage for 35 days. Tumor sizes and body weights were measured weekly. Points, mean tumor volume; bars, ±SD.
The In vivo tumor suppressive activity of compound 2 in the PC-3 prostate tumor xenograft model was also evaluated. Based on the results described above, compound 2 was identified as the lead agent for development as a novel ILK/PDK2 inhibitor. To evaluate the in vivo antitumor activity of compound 2, athymic nude mice bearing established subcutaneous PC-3 tumor xenografts (mean starting tumor volume, 157.1±29.1 mm^3) were treated orally for 35 days with compound 2 at 25 or 50 mg/kg once daily or with vehicle (0.5% methylcellulose and 0.1% Tween 80 in sterile water) (n=5 mice). […] The in vivo efficacy of compound 2 after oral administration indicates its oral bioavailability.

[5] = system: downstream targets of ILK; experiment: Western blot of phosphorylation status of downstream targets of ILK in PC-3 cells (FIG. 5B); type: cell-based, human
Protocol: as §2, §3

[6] = system: MCF-7 human breast cancer cells; experiment: MTT cell viability assay in MCF-7 cells; type: cell-based; conditions: MCF7, 24 h, 5% FBS, read-out: IC50, antiproliferative activity
Protocol: (§4) Dose-dependent effects of compounds 4-9 in MCF-7 (upper panel) and SKBR3 (lower) cells after 24 h treatment in the presence of 5% FBS. Cell viability was assessed by MTT assay. Points, mean; bars, ±SD.
(§5) Compounds 4-9, which were screened previously in a prostate cancer cell line (FIG. 2), were evaluated for antiproliferative activity in MCF-7 and SKBR3 human breast cancer cells.

[7] = system: SKBR3 human breast cancer cells; experiment: MTT cell viability assay in SKBR3 cells; type: cell-based; conditions: SK-BR-3, 24 h, 5% FBS, read-out: IC50, antiproliferative activity
Protocol: as §4, §5

Structure (SMILES): CNC(=O)CCc1cc(-c2ccc(-c3ccc(C(F)(F)F)cc3)cc2)n(-c2ccc(N3CCNCC3)cc2)n1 [Compound 2, N-methyl-3-(1-(4-(piperazin-1-yl)phenyl)-5-(4′-(trifluoromethyl)-[1,1′-biphenyl]-4-yl)-1H-pyrazol-3-yl)propanamide]
- selective inhibition of Akt-S473 phosphorylation (PDK2 inhibitory activity) [1]: marked selective inhibition of Akt-S473 phosphorylation
- antiproliferative activity, relative potency among compounds 1-9 [2]: most potent among the nine compounds
- selectivity of cytotoxicity, cancer cells versus nonmalignant cells [3]: selective cytotoxicity for cancer cells versus their nonmalignant counterparts
- phospho-S473-Akt levels [4]: marked and selective decrease
- phosphorylation of GSK3β [4]: reduced the phosphorylation
- inhibition of PC-3 tumor growth relative to vehicle-treated controls (PC-3 tumor xenografts; 25 mg/kg once daily oral, P=0.10): 42%
- inhibition of PC-3 tumor growth relative to vehicle-treated controls (PC-3 tumor xenografts; 50 mg/kg once daily oral, P=0.03): 56%
- changes in body weight (PC-3 tumor xenografts; 25 or 50 mg/kg once daily oral): nor significant changes in body weight
- tolerability, signs of toxicity (PC-3 tumor xenografts; 25 or 50 mg/kg once daily oral): no overt signs of toxicity

Structure (SMILES): CNC(=O)CCc1cc(-c2ccc3c(ccc4ccccc43)c2)n(-c2ccc(N3CCNCC3)cc2)n1 [Compound 13, N-methyl-3-(5-(phenanthren-2-yl)-1-(4-(piperazin-1-yl)phenyl)-1H-pyrazol-3-yl)propanamide]
- IC50 [2]: 2 to 3 µM
- phospho-Akt-S473 relative to phospho-Akt-T308 [5]: strong reduction
- suppressive activity against GSK3β phosphorylation [5]: did not exhibit substantial suppressive activity

Structure (SMILES): CCNC(=O)CCc1cc(-c2ccc(-c3ccc(C(F)(F)F)cc3)cc2)n(-c2ccc(N3CCNCC3)cc2)n1 [Compound 3, N-ethyl-3-(1-(4-(piperazin-1-yl)phenyl)-5-(4′-(trifluoromethyl)-[1,1′-biphenyl]-4-yl)-1H-pyrazol-3-yl)propanamide]
- selective inhibition of Akt-S473 phosphorylation (PDK2 inhibitory activity) [1]: marked selective inhibition of Akt-S473 phosphorylation
- antiproliferative activity, relative potency among compounds 1-9 [2]: most potent among the nine compounds

Structure (SMILES): CNC(=O)CCc1cc(-c2ccc(-c3ccc(C)cc3)cc2)n(-c2ccc(N3CCNCC3)cc2)n1 [Compound 11, N-methyl-3-(5-(4′-methyl-[1,1′-biphenyl]-4-yl)-1-(4-(piperazin-1-yl)phenyl)-1H-pyrazol-3-yl)propanamide]
- IC50 [2]: 2 to 3 µM

Structure (SMILES): CCNC(=O)c1cc(-c2ccc(-c3ccc(C(F)(F)F)cc3)cc2)n(-c2ccc(NC(=O)CCN)cc2)n1 [Compound 5, 1-(4-(3-aminopropanamido)phenyl)-N-ethyl-5-(4′-(trifluoromethyl)-[1,1′-biphenyl]-4-yl)-1H-pyrazole-3-carboxamide]
- IC50 [6]: 4 to 5 µM
- IC50 [7]: 4 to 5 µM

— patent US8658647B2, “Integrin-linked kinase inhibitors” (The Ohio State University Research Foundation, priority 2010, dated 2014)
